Test results as given in article PMC3523126 (Journal of the American Chemical Society, 2012).

Key:
Calpain-1 [1] = molecular target: T1, Calpain-1 (Homo sapiens, UniProt P07384); conditions: pan-papain family cysteine protease ABP; cited from earlier work
T1 sequence (P07384 1-714): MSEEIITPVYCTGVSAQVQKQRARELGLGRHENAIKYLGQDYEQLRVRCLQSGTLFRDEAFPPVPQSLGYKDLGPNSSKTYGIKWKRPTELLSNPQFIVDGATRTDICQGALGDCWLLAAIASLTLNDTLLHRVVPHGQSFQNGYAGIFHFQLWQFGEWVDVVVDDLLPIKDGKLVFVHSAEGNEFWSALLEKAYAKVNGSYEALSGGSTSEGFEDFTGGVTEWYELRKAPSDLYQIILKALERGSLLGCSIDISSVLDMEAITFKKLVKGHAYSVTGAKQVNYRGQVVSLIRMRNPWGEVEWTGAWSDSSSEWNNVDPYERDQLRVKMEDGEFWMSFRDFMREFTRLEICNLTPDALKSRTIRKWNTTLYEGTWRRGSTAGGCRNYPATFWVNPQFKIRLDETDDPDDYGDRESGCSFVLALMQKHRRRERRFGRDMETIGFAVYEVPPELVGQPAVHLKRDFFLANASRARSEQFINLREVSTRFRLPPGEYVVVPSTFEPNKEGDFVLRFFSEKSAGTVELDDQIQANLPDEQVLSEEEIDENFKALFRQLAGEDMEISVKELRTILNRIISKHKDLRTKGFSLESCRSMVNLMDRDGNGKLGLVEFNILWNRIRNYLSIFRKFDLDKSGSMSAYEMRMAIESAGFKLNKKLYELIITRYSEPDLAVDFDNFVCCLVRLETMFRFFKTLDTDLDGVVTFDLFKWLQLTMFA
T1 sequence (P04632 1-268 partner): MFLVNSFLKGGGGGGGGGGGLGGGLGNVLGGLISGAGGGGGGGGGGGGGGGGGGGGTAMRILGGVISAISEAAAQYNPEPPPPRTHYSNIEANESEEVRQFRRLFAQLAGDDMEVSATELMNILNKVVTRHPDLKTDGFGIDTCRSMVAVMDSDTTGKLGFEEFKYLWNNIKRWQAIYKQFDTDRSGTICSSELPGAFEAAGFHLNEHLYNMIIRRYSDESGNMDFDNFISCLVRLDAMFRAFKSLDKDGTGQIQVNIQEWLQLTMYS

Cathepsin L = Cathepsin L (Homo sapiens, UniProt P07711); test: Protease fluorescence activity assay, cathepsin L inhibition; type: biochemical; conditions: crosslinked peptide; ratio of Ki values
Calpain-1 [2] = molecular target: T1, Calpain-1; test: Kinetic analysis of calpain-1 inhibition; type: biochemical; conditions: crosslinked peptide; Michaelis-Menten and Lineweaver-Burke analysis

Sequence of Cathepsin L (P07711 114-333, species assumed): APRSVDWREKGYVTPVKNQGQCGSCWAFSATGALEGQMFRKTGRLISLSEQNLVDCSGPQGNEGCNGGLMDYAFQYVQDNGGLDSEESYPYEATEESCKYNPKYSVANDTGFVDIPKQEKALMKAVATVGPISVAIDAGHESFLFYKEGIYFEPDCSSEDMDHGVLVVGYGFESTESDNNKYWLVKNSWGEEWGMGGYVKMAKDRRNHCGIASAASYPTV

Potency against calpain over cathepsin L (Cathepsin L)	Mechanism of calpain-1 inhibition (Calpain-1 [2])	SMILES	Labeling of calpains (positive control) (Calpain-1 [1])
		CCOC(=O)[C@H]1O[C@@H]1C(=O)N[C@@H](CC(C)C)C(=O)N[C@@H](Cc1ccc(O)cc1)C(=O)NCCCCCC(=O)N[C@@H](CCCCNC(=O)CCCC[C@@H]1SC[C@@H]2NC(=O)N[C@@H]21)C(N)=O [DCG-04]	known to label calpains
about four fold more potent	competitive inhibitor	CC[C@H](C)[C@H](NC(C)=O)C(=O)N1CCC[C@H]1C(=O)N1CCC[C@H]1C(=O)N[C@@H](CCCCN)C(=O)N[C@@H](Cc1ccc(O)cc1)C(=O)N[C@H]1CSCc2cccc(c2)CSC[C@@H](C(N)=O)NC(=O)[C@H](CC(C)C)NC(=O)[C@H](CC(C)C)NC(=O)[C@H](CCC(=O)O)NC1=O [Peptide 3c]	
